{"source": "patent US8389679B2", "about": "“Targeted antimicrobial moieties” (priority 2009, dated 2013)", "note": "Entries after “also recorded” stand apart in the source; their conditions may differ."}
{"test_system": "target microorganisms", "test": "Screen of synthesized peptides for binding to target microorganisms (targeting peptides, Tables 2 and 3)", "details": "microorganism(s) the targeting peptide was identified as binding to (Table 3)", "protocol": "Once noted, these peptides were batch synthesized on a multiplex peptide synthesizer, yielding 5-10 mg of each peptide that could readily be screened for biological activity (e.g., binding activity and/or antimicrobial activity.\nOther suitable targeting peptides include the peptides that have been identified as binding to particular target organisms as shown in Table 3 and/or Table 4."}
{"substance": "1T-135 (FESLLPQATKKIVNNKGSKINKIF; synthetic novel tartgeting peptide IT-135)", "Target(s)": "A. naeslundii, P. gingivalis; also recorded: S. epidermidis,; also recorded: S. gordonii, S. mitis, S. mutans,; also recorded: S. oralis, S. salivarious,; also recorded: S. sanguinis"}
{"substance": "1T-136 (ELLTQIRLALLYSVNEW; synthetic novel tartgeting peptide IT-136)", "Target(s)": "A. naeslundii, F. nucleatum,; also recorded: P. gingivalis,; also recorded: S. epidermidis, S. gordonii,; also recorded: S. mitis, S. mutans,; also recorded: S. oralis, S. salivarious,; also recorded: S. sanguinis"}
{"substance": "1T-137 (PLNFYRAVKENRLPLSEKNINDFTNIKLKVSPKLINLLQESSIFYNFSPKKRNTN; synthetic novel tartgeting peptide IT-137)", "Target(s)": "A. naeslundii, F. nucleatum,; also recorded: P. gingivalis; also recorded: S. epidermidis,; also recorded: S. gordonii, S. mitis, S. mutans,; also recorded: S. oralis, S. salivarious,; also recorded: S. sanguinis"}
{"substance": "1T-138 (YPNEYCIFLENLSLEELKEIKAINGETLNLEEIINERKNLKD; synthetic novel tartgeting peptide IT-138)", "Target(s)": "A. naeslundii, F. nucleatum,; also recorded: P. gingivalis; also recorded: S. epidermidis,; also recorded: S. gordonii, S. mitis, S. mutans,; also recorded: S. oralis, S. salivarious,; also recorded: S. sanguinis"}
{"substance": "1T-139 (AVAGAAVGALLGNDARSTAVGAAIGGALGAGAGELTKNK; synthetic novel tartgeting peptide IT-139)", "Target(s)": "A. naeslundiiS. gordonii,; also recorded: S. mitis, S. mutans, S. oralis"}
{"substance": "1T-140 (IKGTIAFVGEDYVEIRVDKGVKLTFRKSAIANVINNNQQ; synthetic novel tartgeting peptide IT-140)", "Target(s)": "A. naeslundii, F. nucleatum,; also recorded: P. gingivalis; also recorded: S. epidermidis,; also recorded: S. gordonii, S. mitis, S. mutans,; also recorded: S. oralis, S. salivarious,; also recorded: S. sanguinis"}
{"substance": "1T-141 (KKFIILLFILVQGLIFSATKTLSDIIAL; synthetic novel tartgeting peptide IT-141)", "Target(s)": "F. nucleatum, P. gingivalis; also recorded: S. epidermidis,; also recorded: S. gordonii, S. mitis, S. mutans,; also recorded: S. oralis, S. sanguinis"}
{"substance": "1T-142 (FTQGIKRIVLKRLKED; synthetic novel tartgeting peptide IT-142)", "Target(s)": "A. naeslundii, F. nucleatum,; also recorded: P. gingivalis,; also recorded: T. denticolaS. gordonii,; also recorded: S. mitis, S. mutans, S. oralis,; also recorded: S. salivarious, S. sanguinis"}
{"substance": "1T-143 (MPKRHYYKLEAKALQFGLPFAYSPIQLLK; synthetic novel tartgeting peptide IT-143)", "Target(s)": "A. naeslundii, F. nucleatum,; also recorded: P. gingivalis; also recorded: S. epidermidis,; also recorded: S. gordonii, S. mitis, S. mutans,; also recorded: S. oralis, S. salivarious,; also recorded: S. sanguinis"}
{"substance": "1T-144 (IIELHPKSWTQDWRCSFL; synthetic novel tartgeting peptide IT-144)", "Target(s)": "A. naeslundii, F. nucleatum,; also recorded: P. gingivalis,; also recorded: T. denticolaS. gordonii,; also recorded: S. mitis, S. mutans, S. oralis,; also recorded: S. salivarious, S. sanguinis"}
{"substance": "1T-145 (VEAGKRNISLENIEKISKGLGISISELFKYIEEGEDKIG; synthetic novel tartgeting peptide IT-145)", "Target(s)": "S. mitis, S. mutans, S. oralis"}
{"substance": "1T-146 (RNSADNQTKIDKIRIDISLWDEHLNIVKQGK; synthetic novel tartgeting peptide IT-146)", "Target(s)": "A. naeslundii, F. nucleatum,; also recorded: P. gingivalis,; also recorded: T. denticolaS. gordonii,; also recorded: S. mitis, S. mutans, S. oralis,; also recorded: S. salivarious, S. sanguinis"}
{"substance": "1T-147 (GVENRRFYERDVSKVSMMTSEAVAPRGGSK; synthetic novel tartgeting peptide IT-147)", "Target(s)": "A. naeslundii, F. nucleatum,; also recorded: P. gingivalis,; also recorded: T. denticolaS. gordonii,; also recorded: S. mitis, S. mutans, S. oralis,; also recorded: S. salivarious, S. sanguinis"}
{"substance": "1T-148 (IVELDDTTILERALSMLGEANA; synthetic novel tartgeting peptide IT-148)", "Target(s)": "A. naeslundii, F. nucleatum,; also recorded: P. gingivalis,; also recorded: T. denticolaS. gordonii,; also recorded: S. mitis, S. mutans, S. oralis,; also recorded: S. salivarious, S. sanguinis"}
{"substance": "1T-149 (SVRAVKPIDETVARHFPGDFIVN; synthetic novel tartgeting peptide IT-149)", "Target(s)": "A. naeslundii, F. nucleatum,; also recorded: P. gingivalis,; also recorded: T. denticolaS. gordonii,; also recorded: S. mitis, S. mutans, S. oralis,; also recorded: S. salivarious, S. sanguinis"}
{"substance": "1T-150 (YINRRLKKAFSDADIKEAPAEFYEELRRVQYV; synthetic novel tartgeting peptide IT-150)", "Target(s)": "A. naeslundii, F. nucleatum,; also recorded: P. gingivalis,; also recorded: T. denticolaS. gordonii,; also recorded: S. mitis, S. mutans, S. oralis,; also recorded: S. salivarious, S. sanguinis"}
{"substance": "1T-151 (SVRAVKPIDEIVAWHFPGDFIVN; synthetic novel tartgeting peptide IT-151)", "Target(s)": "A. naeslundii, F. nucleatum,; also recorded: P. gingivalis,; also recorded: T. denticolaS. gordonii,; also recorded: S. mitis, S. mutans, S. oralis,; also recorded: S. salivarious, S. sanguinis"}
{"substance": "1T-152 (YVSADESAYNHIVTDDIPLADRRIEAVQQ; synthetic novel tartgeting peptide IT-152)", "Target(s)": "A. naeslundii, F. nucleatum,; also recorded: P. gingivalis; also recorded: S. epidermidis,; also recorded: S. gordonii, S. mitis, S. mutans,; also recorded: S. oralis, S. salivarious,; also recorded: S. sanguinis"}
{"substance": "1T-153 (YIACPGYFY; synthetic novel tartgeting peptide IT-153)", "Target(s)": "A. naeslundii, F. nucleatum,; also recorded: P. gingivalis; also recorded: S. epidermidis,; also recorded: S. gordonii, S. mitis, S. mutans,; also recorded: S. oralis, S. salivarious,; also recorded: S. sanguinis"}
{"substance": "1T-154 (YFSFLEIVGMARR; synthetic novel tartgeting peptide IT-154)", "Target(s)": "P. gingivalis"}
{"substance": "1T-155 (LKLAFGVYPFQAMSQSDTAVSERNVLWR; synthetic novel tartgeting peptide IT-155)", "Target(s)": "A. naeslundii, F. nucleatum,; also recorded: P. gingivalis; also recorded: S. epidermidis,; also recorded: S. gordonii, S. mitis, S. mutans,; also recorded: S. oralis, S. salivarious,; also recorded: S. sanguinis"}
{"substance": "1T-156 (GRFQISIRGEEKSKVKVQGKGTFTDRNTT; synthetic novel tartgeting peptide IT-156)", "Target(s)": "A. naeslundii, F. nucleatum,; also recorded: P. gingivalis,; also recorded: T. denticolaS. gordonii,; also recorded: S. mitis, S. mutans, S. oralis,; also recorded: S. salivarious, S. sanguinis"}
{"substance": "1T-157 (RRFRKTTENREKSKNKKAVLGLSTTSTASY; synthetic novel tartgeting peptide IT-157)", "Target(s)": "A. naeslundii, F. nucleatum,; also recorded: P. gingivalis,; also recorded: T. denticolaS. gordonii,; also recorded: S. mitis, S. mutans, S. oralis,; also recorded: S. salivarious, S. sanguinis"}
{"substance": "1T-158 (WENKPSPLGSIKKLQGLVYRLIGYRHFWV; synthetic novel tartgeting peptide IT-158)", "Target(s)": "A. naeslundii, F. nucleatum,; also recorded: P. gingivalis; also recorded: S. epidermidis,; also recorded: S. gordonii, S. mitis, S. mutans,; also recorded: S. oralis, S. salivarious,; also recorded: S. sanguinis"}
{"substance": "1T-159 (IFSLHHFALICSEMGTFAVSKRAKYKWEVL; synthetic novel tartgeting peptide IT-159)", "Target(s)": "P. gingivalis"}
{"substance": "1T-160 (AQYKYINKLLN; synthetic novel tartgeting peptide IT-160)", "Target(s)": "A. naeslundii, F. nucleatum,; also recorded: P. gingivalis,; also recorded: T. denticolaS. gordonii,; also recorded: S. mitis, S. mutans, S. oralis,; also recorded: S. salivarious, S. sanguinis"}
{"substance": "1T-161 (NKVLQVEVMWDGSVVGRPAGVISIKSSKKG; synthetic novel tartgeting peptide IT-161)", "Target(s)": "A. naeslundii, F. nucleatum,; also recorded: P. gingivalis; also recorded: S. epidermidis,; also recorded: S. gordonii, S. mitis, S. mutans,; also recorded: S. oralis, S. salivarious,; also recorded: S. sanguinis"}
{"substance": "1T-162 (QKAKEESDRKAAVSYNGFHRVNVVSIPK; synthetic novel tartgeting peptide IT-162)", "Target(s)": "A. naeslundii, F. nucleatum,; also recorded: P. gingivalis,; also recorded: T. denticolaS. gordonii,; also recorded: S. mitis, S. mutans, S. oralis,; also recorded: S. salivarious, S. sanguinis"}
{"substance": "1T-163 (MENILIYIPMVLSPFGSGILLFLGKDRRYML; synthetic novel tartgeting peptide IT-163)", "Target(s)": "A. naeslundii, F. nucleatum,; also recorded: P. gingivalis; also recorded: S. epidermidis,; also recorded: S. gordonii, S. mitis, S. mutans,; also recorded: S. oralis, S. salivarious,; also recorded: S. sanguinis"}
{"substance": "1T-164 (KKSHSQGKRKLKDLNSAYKIDNQLHYALR; synthetic novel tartgeting peptide IT-164)", "Target(s)": "A. naeslundii, F. nucleatum,; also recorded: P. gingivalis; also recorded: S. epidermidis,; also recorded: S. gordonii, S. mitis, S. mutans,; also recorded: S. oralis, S. salivarious,; also recorded: S. sanguinis"}
{"substance": "1T-165 (CYDSFDFSIFVTFANRMKLSVGS; synthetic novel tartgeting peptide IT-165)", "Target(s)": "A. naeslundii, F. nucleatum,; also recorded: P. gingivalis; also recorded: S. epidermidis,; also recorded: S. gordonii, S. mitis, S. mutans,; also recorded: S. oralis, S. salivarious,; also recorded: S. sanguinis"}
{"substance": "1T-166 (AQSAGQIKRKSKVRIHV; synthetic novel tartgeting peptide IT-166)", "Target(s)": "A. naeslundii, F. nucleatum,; also recorded: P. gingivalis; also recorded: S. epidermidis,; also recorded: S. gordonii, S. mitis, S. mutans,; also recorded: S. oralis, S. salivarious,; also recorded: S. sanguinis"}
{"substance": "1T-167 (SRMSEHSPAGLVFEVGPMDKGSFIILDSYHPTVKK; synthetic novel tartgeting peptide IT-167)", "Target(s)": "A. naeslundii, F. nucleatum,; also recorded: P. gingivalis; also recorded: S. epidermidis,; also recorded: S. gordonii, S. mitis, S. mutans,; also recorded: S. oralis, S. salivarious,; also recorded: S. sanguinis"}
{"substance": "1T-168 (ELHRIMSTEKIGAVTKMNFDTAPIMSILPIDIYPKEVGIGS; synthetic novel tartgeting peptide IT-168)", "Target(s)": "A. naeslundii, F. nucleatum,; also recorded: P. gingivalis; also recorded: S. epidermidis,; also recorded: S. gordonii, S. mitis, S. mutans,; also recorded: S. oralis, S. salivarious,; also recorded: S. sanguinis"}
